According to BigSolDB 2.1:

CC(C)(C)OC(=O)N[C@@H](CCC(N)=O)C(=O)O
solubility (mole fraction)
Details | 283.15 K | 288.15 K | 293.15 K | 298.15 K | 303.15 K | 308.15 K | 313.15 K | 318.15 K | 323.15 K
in 2-butanone | 0.0208 | 0.0219 | 0.0247 | 0.0294 | 0.035 | 0.0408 | 0.0517 | 0.068 | 0.0995
in acetone | 0.0586 | 0.0675 | 0.0797 | 0.0959 | 0.105 | 0.127 | 0.146 | 0.168 | 0.187
in acetonitrile | 0.00293 | 0.00389 | 0.00493 | 0.0064 | 0.008 | 0.0113 | 0.0165 | 0.0243 | 0.0356
in ethanol | 0.13 | 0.139 | 0.148 | 0.155 | 0.165 | 0.177 | 0.191 | 0.202 | –
in ethyl acetate | 0.00199 | 0.00241 | 0.00301 | 0.00377 | 0.00475 | 0.00596 | 0.00774 | 0.0102 | 0.0145
in isobutanol | 0.0317 | 0.0398 | 0.0479 | 0.055 | 0.0676 | 0.0766 | 0.0843 | 0.0943 | 0.108
in isopropanol | 0.0536 | 0.0626 | 0.0789 | 0.0922 | 0.108 | 0.124 | 0.153 | 0.175 | 0.198
in methyl acetate | 0.00534 | 0.00588 | 0.00699 | 0.00843 | 0.0115 | 0.0173 | 0.0254 | 0.0393 | 0.0649
in n-butanol | 0.0427 | 0.0487 | 0.0554 | 0.0649 | 0.0748 | 0.0924 | 0.119 | 0.146 | –
in n-pentanol | 0.0343 | 0.0352 | 0.0382 | 0.0417 | 0.0481 | 0.0573 | 0.07 | 0.0946 | –
in n-propanol | 0.057 | 0.0698 | 0.0803 | 0.0938 | 0.116 | 0.135 | 0.162 | 0.207 | –
in water | 0.00718 | 0.00807 | 0.00935 | 0.0126 | 0.0205 | 0.0307 | 0.0554 | 0.0905 | –
